Experimental data from patent publication US20230312550A1, “N-(2-(4-CYANOTHIAZOLIDIN-3-YL)-2-OXOETHYL)-QUINOLINE-4-CARBOXAMIDES” (AstraZeneca AB, priority 2020, published 2023).
pIC50, pKd: −log10 of the molar value. Converted amounts (≈) assume the structure as drawn.

What was measured:
[1] = molecular target: hFAP (M39-A757) (Homo sapiens (Human), UniProt Q12884); test: hFAP binding assay (surface plasmon resonance); settings: SPR, 20° C.; for hFAP Binding assay k(off) / hFAP Binding assay k(on): single cycle kinetics; for pKd: n = 1 or geometric mean n = 2-4
[2] = molecular target: human Fibroblast activation protein alpha (hFAP) (Homo sapiens (Human), UniProt Q12884); test: hFAP inhibition assay (tight binders); assay type: biochemical; settings: Ala-Pro-AMC 20 μM, n = 1 or geometric mean n = 2-6; note: hFAP 2.4 pM
Method: The plates were read on a PHERAstar® reader with excitation 340 nm and emission 460 nm. Data were analyzed in Genedata Screener®. IC50 values were determined by plotting % inhibition versus log compound concentration and using a one site dose response model.

[3] = molecular target: Prolyl endopeptidase, Prolyl Oligopeptidase (hPREP) (Homo sapiens (Human), UniProt P48147); test: hPrep inhibition assay; assay type: biochemical; settings: hPREP 0.6 nM, Z-Gly-Pro-amino-methylcoumarin 50 μM; read-out: PREP IC50
Method: Compounds were tested in a biochemical inhibition assay using Prolyl endopeptidase, Prolyl Oligopeptidase (hPREP) enzyme at 0.6 nM FAC (R&D Systems, 4308-SE) and the substrate Z-Gly-Pro-amino-methylcoumarin (Bachem, I-1145) at 50 μM FAC. 384 Low volume black plates (Greiner #784076) were used. […] Plates were incubated for 15 min at rt in dark. 4 μL, 100 μM substrate solution (25 mM Tris HCl, 250 mM NaCl, 0.01% Triton X-100, 5 mM Glutathione, pH 7.5) was added to each well. Plates were centrifuged at 1000 rpm and incubated for 20 min at rt in dark. The plates were read on a PHERAstar® reader with excitation 340 nm and emission 460 nm. Data were analyzed in Genedata Screener®. IC50 values were determined by plotting % inhibition versus log compound concentration and using a one site dose response model.

[4] = Metabolic stability in human liver microsomes (HLM); settings: for microsomal CLint: human
Method: Metabolic stability in HLM was measured as described in J Comput Aided Mol Des 2015, 29, 795.

[5] = Metabolic stability in rat hepatocytes (rHep); settings: n = 1 or geometric mean of n = 2-3
[6] = Kinetic solubility
Method: Kinetic solubility was measured as described in Comput Aided Mol Des 2015, 29, 795.

[7] = HLM CLint, n = 1 or average of n = 2-3
[8] = kinetic from dmso stock, Solubility, kinetic solubility, n = 1 or average of n = 2-3
[9] = kinetic solubility, n = 1 or average of n = 2-3

Sequence of Prolyl endopeptidase, Prolyl Oligopeptidase (hPREP) (P48147 whole entry): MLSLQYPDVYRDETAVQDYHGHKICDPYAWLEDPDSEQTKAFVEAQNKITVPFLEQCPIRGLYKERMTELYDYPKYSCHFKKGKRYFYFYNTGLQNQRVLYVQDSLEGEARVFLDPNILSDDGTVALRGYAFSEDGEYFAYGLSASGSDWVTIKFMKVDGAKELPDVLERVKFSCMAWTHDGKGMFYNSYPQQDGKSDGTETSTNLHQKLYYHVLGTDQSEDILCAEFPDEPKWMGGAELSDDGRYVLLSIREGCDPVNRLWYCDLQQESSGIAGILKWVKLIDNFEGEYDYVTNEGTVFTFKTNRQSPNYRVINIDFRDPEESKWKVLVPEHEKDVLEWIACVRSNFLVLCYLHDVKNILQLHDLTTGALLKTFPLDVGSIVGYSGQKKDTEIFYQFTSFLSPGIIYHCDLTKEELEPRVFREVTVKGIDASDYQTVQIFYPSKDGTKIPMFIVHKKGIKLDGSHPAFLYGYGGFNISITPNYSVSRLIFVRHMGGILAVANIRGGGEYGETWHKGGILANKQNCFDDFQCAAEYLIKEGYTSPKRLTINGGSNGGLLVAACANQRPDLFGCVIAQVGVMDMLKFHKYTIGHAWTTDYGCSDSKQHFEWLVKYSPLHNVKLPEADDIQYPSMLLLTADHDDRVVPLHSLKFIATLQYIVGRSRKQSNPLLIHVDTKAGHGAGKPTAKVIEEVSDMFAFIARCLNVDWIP
Sequence of hFAP (M39-A757) (Q12884 39-757): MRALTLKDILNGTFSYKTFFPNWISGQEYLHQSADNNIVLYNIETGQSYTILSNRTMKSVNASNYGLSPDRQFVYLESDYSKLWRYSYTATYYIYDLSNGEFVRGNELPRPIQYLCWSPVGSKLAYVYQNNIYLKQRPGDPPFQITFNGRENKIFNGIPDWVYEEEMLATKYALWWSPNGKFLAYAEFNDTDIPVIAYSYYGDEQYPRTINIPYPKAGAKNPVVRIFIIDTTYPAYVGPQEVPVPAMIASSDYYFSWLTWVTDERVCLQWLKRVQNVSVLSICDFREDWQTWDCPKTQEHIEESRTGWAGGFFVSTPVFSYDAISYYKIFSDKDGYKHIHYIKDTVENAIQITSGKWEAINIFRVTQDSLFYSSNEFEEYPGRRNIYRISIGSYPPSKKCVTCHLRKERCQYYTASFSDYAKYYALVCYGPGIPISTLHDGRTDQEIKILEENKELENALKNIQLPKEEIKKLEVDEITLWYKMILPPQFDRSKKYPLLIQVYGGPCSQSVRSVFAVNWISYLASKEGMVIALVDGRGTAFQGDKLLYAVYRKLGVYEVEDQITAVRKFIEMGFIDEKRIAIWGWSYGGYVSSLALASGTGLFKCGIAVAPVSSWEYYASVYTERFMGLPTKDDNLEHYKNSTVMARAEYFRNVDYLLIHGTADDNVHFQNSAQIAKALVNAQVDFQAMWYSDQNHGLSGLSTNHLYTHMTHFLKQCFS
Sequence of human Fibroblast activation protein alpha (hFAP) (Q12884 38-760): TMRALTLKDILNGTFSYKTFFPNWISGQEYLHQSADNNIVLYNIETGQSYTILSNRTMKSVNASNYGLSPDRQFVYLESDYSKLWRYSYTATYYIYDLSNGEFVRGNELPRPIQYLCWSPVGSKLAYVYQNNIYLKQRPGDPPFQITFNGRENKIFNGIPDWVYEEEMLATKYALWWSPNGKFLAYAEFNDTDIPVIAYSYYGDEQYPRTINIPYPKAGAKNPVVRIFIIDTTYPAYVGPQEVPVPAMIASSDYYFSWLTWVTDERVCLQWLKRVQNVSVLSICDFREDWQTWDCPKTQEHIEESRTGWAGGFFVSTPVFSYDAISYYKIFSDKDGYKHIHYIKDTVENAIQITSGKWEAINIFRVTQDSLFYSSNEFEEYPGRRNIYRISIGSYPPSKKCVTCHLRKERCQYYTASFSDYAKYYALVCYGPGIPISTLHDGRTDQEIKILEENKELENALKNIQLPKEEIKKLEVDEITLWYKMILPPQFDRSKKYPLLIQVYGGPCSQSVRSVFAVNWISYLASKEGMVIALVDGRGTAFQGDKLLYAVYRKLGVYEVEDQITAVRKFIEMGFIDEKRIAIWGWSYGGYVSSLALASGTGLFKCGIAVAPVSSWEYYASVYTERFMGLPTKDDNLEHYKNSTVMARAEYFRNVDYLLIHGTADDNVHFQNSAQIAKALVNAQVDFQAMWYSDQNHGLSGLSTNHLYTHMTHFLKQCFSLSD

Row | Compound | hFAP Binding assay k(off) [1] [s⁻¹] | hFAP Binding assay k(on) [1] [M⁻¹ s⁻¹] | pKd [1] | pIC50 [2] | pIC50 [3] | microsomal CLint [4, 7] [µL/min/mg] | rHep CLint [5] [μL/min/1E6] | solubility [6, 8] [µM] | HLM CLint ([4]; n = 1 or average of n = 2-3) [µL/min/mg] | solubility [6, 9] [µM] | microsomal CLint [4] [µL/min/mg] | solubility ([6]; kinetic from dmso stock) [µM]
1 | N#C[C@@H]1CSCN1C(=O)CNC(=O)c1ccnc2ccc(N3C[C@@H]4CCC[C@@H]43)cc12 (mixture of isomers) [Example 156, 6-((1RS,5RS)-6-Azabicyclo[3.2.0]heptan-6-yl)-N-(2-((R)-4-cyanothiazolidin-3-yl)-2-oxoethyl)quinoline-4-carboxamide] | 0.000066 | 1200000 | 10.25 | 9.66 | 6.51 | 140 | 120 | 100 | – | – | – | –
2 | C[C@H]1N(c2ccc3nccc(C(=O)NCC(=O)N4CSC[C@H]4C#N)c3c2)CC1(F)F (mixture of isomers) [Example 159, N-(2-((R)-4-Cyanothiazolidin-3-yl)-2-oxoethyl)-6-((RS)-3,3-difluoro-2-methylazetidin-1-yl)quinoline-4-carboxamide] | 0.000092 | 2100000 | 10.41 | 10.14 | 6.55 | 61 | 47 | 550 | – | – | – | –
3 | N#C[C@@H]1CSCN1C(=O)CNC(=O)c1ccnc2ccc(N3CCOC[C@@H]3C(F)(F)F)cc12 (single isomer, unassigned) [Example 84, N-(2-((R)-4-Cyanothiazolidin-3-yl)-2-oxoethyl)-6-((R*)-3-(trifluoromethyl)-morpholino)quinoline-4-carboxamide] | 0.00011 | 1200000 | 9.92 | 10.13 | 6.15 | – | 26 | 940 (≈ 451 µg/mL) | 64 | – | – | –
4 | N#C[C@@H]1CSCN1C(=O)CNC(=O)c1ccnc2ccc(N3CCC[C@H]3C3CC3)cc12 (single isomer, unassigned) [Example 200, N-(2-((R)-4-Cyanothiazolidin-3-yl)-2-oxoethyl)-6-((R*)-2-cyclopropyl-pyrrolidin-1-yl)quinoline-4-carboxamide] | 0.00023 | 2500000 | 10.05 | 9.62 | 6.89 | > 300 | >300 | 81 (≈ 35.3 µg/mL) | – | – | – | –
5 | C[C@@H]1CN(c2ccc3nccc(C(=O)NCC(=O)N4CSC[C@H]4C#N)c3c2)C[C@H]1C (single isomer, unassigned) [Example 225, N-(2-((R)-4-Cyanothiazolidin-3-yl)-2-oxoethyl)-6-((3R*,4R*)-3,4-dimethylpyrrolidin-1-yl)quinoline-4-carboxamide] | – | – | 10.11 | 9.96 | 6.33 | 110 | 37 | – | – | 2.2 (≈ 0.932 µg/mL) | – | –
6 | CC1(C)CN(c2ccc3nccc(C(=O)NCC(=O)N4CSC[C@H]4C#N)c3c2)CCC1(F)F [Example 38, (R)—N-(2-(4-Cyanothiazolidin-3-yl)-2-oxoethyl)-6-(4,4-difluoro-3,3-dimethylpiperidin-1-yl)quinoline-4-carboxamide] | 0.000078 | 520000 | 9.96 | 10.00 | 6.32 | > 300 | >300 | 33 (≈ 15.6 µg/mL) | – | – | – | –
7 | CC(C)OC1CCN(c2ccc3nccc(C(=O)NCC(=O)N4CSC[C@H]4C#N)c3c2)CC1 [Example 43, (R)—N-(2-(4-Cyanothiazolidin-3-yl)-2-oxoethyl)-6-(4-isopropoxypiperidin-1-yl)quinoline-4-carboxamide] | 0.000019 | 3200000 | 11.21 | 10.35 | 6.00 | 36 | 9.1 | 52 (≈ 24.3 µg/mL) | – | – | – | –
8 | COCC[C@@H]1COCCN1c1ccc2nccc(C(=O)NCC(=O)N3CSC[C@H]3C#N)c2c1 [Example 95, N-(2-((R)-4-Cyanothiazolidin-3-yl)-2-oxoethyl)-6-((R)-3-(2-methoxyethyl)-morpholino)quinoline-4-carboxamide] | 0.000056 | 2900000 | 10.62 | 9.80 | 6.13 | 63 | 13 | 960 (≈ 451 µg/mL) | – | – | – | –
9 | N#C[C@@H]1CSCN1C(=O)CNC(=O)c1ccnc2ccc(N3CCC4(CC3)OCCCO4)cc12 [Example 227, (R)—N-(2-(4-cyanothiazolidin-3-yl)-2-oxoethyl)-6-(1,5-dioxa-9-azaspiro[5.5]undecan-9-yl)quinoline-4-carboxamide] | – | – | – | – | 6.22 | – | 2.8 | – | – | – | 17 | 852 (≈ 410 µg/mL)

Continued, in another order:

Row | hFAP Binding assay k(off) [1] [s⁻¹] | hFAP Binding assay k(on) [1] [M⁻¹ s⁻¹] | pKd [1] | pIC50 [2] | pIC50 [3] | microsomal CLint [4, 7] [µL/min/mg] | rHep CLint [5] [μL/min/1E6] | solubility [6, 8] [µM] | HLM CLint ([4]; n = 1 or average of n = 2-3) [µL/min/mg] | solubility [6, 9] [µM] | Compound | microsomal CLint [4] [µL/min/mg] | solubility ([6]; kinetic from dmso stock) [µM]
10 | 0.00011 | 4000000 | 10.49 | 10.06 | 6.14 | – | 35 | – | 260 | 800 (≈ 384 µg/mL) | N#C[C@@H]1CSCN1C(=O)CNC(=O)c1ccnc2ccc(N3CCOC[C@@H]3C(F)(F)F)cc12 (single isomer, unassigned) [Example 85, N-(2-((R)-4-Cyanothiazolidin-3-yl)-2-oxoethyl)-6-((R*)-3-(trifluoromethyl)-morpholino)quinoline-4-carboxamide] | – | –
11 | 0.00026 | 2300000 | 10.00 | 9.52 | 6.77 | > 300 | 250 | 85 (≈ 37 µg/mL) | – | – | N#C[C@@H]1CSCN1C(=O)CNC(=O)c1ccnc2ccc(N3CCC[C@@H]3C3CC3)cc12 (single isomer, unassigned) [Example 199, N-(2-((R)-4-Cyanothiazolidin-3-yl)-2-oxoethyl)-6-((R*)-2-cyclopropyl-pyrrolidin-1-yl)quinoline-4-carboxamide] | – | –
12 | – | – | 10.36 | 9.70 | 6.18 | – | 44 | – | 94 | 4.5 (≈ 1.91 µg/mL) | C[C@@H]1CN(c2ccc3nccc(C(=O)NCC(=O)N4CSC[C@H]4C#N)c3c2)C[C@H]1C (single isomer, unassigned) [Example 226, N-(2-((R)-4-Cyanothiazolidin-3-yl)-2-oxoethyl)-6-((3R*,4R*)-3,4-dimethylpyrrolidin-1-yl)quinoline-4-carboxamide] | – | –
13 | 0.000056 | 370000 | 9.82 | 10.27 | 6.03 | 130 | 41 | 270 (≈ 115 µg/mL) | – | – | Cc1cc2nccc(C(=O)NCC(=O)N3CSC[C@H]3C#N)c2cc1N1CCOCC1 [Example 10, (R)—N-(2-(4-Cyanothiazolidin-3-yl)-2-oxoethyl)-7-methyl-6-morpholino-quinoline-4-carboxamide] | – | –
14 | 0.000076 | 9200000 | 10.85 | 10.39 | 6.42 | 12 | 5.4 | 27 (≈ 11.9 µg/mL) | – | – | CC1(C)CN(c2ccc3nccc(C(=O)NCC(=O)N4CSC[C@H]4C#N)c3c2)C(=O)O1 [Example 13, (R)—N-(2-(4-Cyanothiazolidin-3-yl)-2-oxoethyl)-6-(5,5-dimethyl-2-oxooxazolidin-3-yl)quinoline-4-carboxamide] | – | –
15 | 0.00022 | 26000000 | 10.46 | 10.11 | 6.31 | < 3 | <1 | 210 (≈ 86.4 µg/mL) | – | – | COC1CN(c2ccc3nccc(C(=O)NCC(=O)N4CSC[C@H]4C#N)c3c2)C1 [Example 66, (R)—N-(2-(4-Cyanothiazolidin-3-yl)-2-oxoethyl)-6-(3-methoxyazetidin-1-yl)quinoline-4-carboxamide] | – | –
16 | 0.00016 | 2400000 | 10.18 | 9.89 | 5.74 | 32 | 11 | 310 (≈ 149 µg/mL) | – | – | N#C[C@@H]1CSCN1C(=O)CNC(=O)c1ccnc2ccc(N3CCO[C@@H](C(F)(F)F)C3)cc12 [Example 73, N-(2-((R)-4-Cyanothiazolidin-3-yl)-2-oxoethyl)-6-((R)-2-(trifluoromethyl)-morpholino)quinoline-4-carboxamide] | – | –
